# Results as given in patent publication US12378211B2, “Carbonic anhydrase inhibitors and antibiotics against multidrug resistant bacteria” (Purdue Research Foundation, priority 2018, dated 2025).
# Like-named read-outs stand apart in the source and are kept apart here.
# What was measured:
# [1] = test system: Enterococcus faecalis—S613 HM-334; experiment: MIC, broth microdilution in TSB; type: cell-based; conditions: Enterococcus
# Description: (§1) The minimum inhibitory concentrations (MICs) of the compounds and control drugs were determined using the broth microdilution method, according to guidelines outlined by the Clinical and Laboratory Standards Institute (CLSI). Enterococci strains were grown aerobically overnight on tryptone soya agar plates at 37° C., afterwards a bacterial solution equivalent to 0.5 McFarland standard was prepared and diluted in tryptone soy broth (TSB) to achieve a bacterial concentration of about 5×10^5 CFU/mL and seeded in 96-well well plates. Compounds and control drugs were added in the first row of the 96-well plates and serially diluted along the plates. Plates were then incubated aerobically at 37° C. for 18-20 hours. MICs reported in Table 1 are the minimum concentration of the compounds/control drugs that could inhibit completely the visual growth of the bacteria.
# [2] = test system: Enterococcus faecium E417-HM-965; experiment: MIC, broth microdilution in TSB; type: cell-based; conditions: Enterococcus faecium
# Description: as §1
# [3] = test system: Enterococcus faecium Patient #2-1-NR-31909; experiment: MIC, broth microdilution in TSB; type: cell-based; conditions: Enterococcus faecium
# Description: as §1
# [4] = test system: Enterococcus faecium Patient #3-1 NR-31912; experiment: MIC, broth microdilution in TSB; type: cell-based; conditions: Enterococcus faecium
# Description: as §1
# [5] = test system: Enterococcus fecalis Strain MMH594-NR31975; experiment: MIC, broth microdilution in TSB; type: cell-based; conditions: Enterococcus
# Description: as §1
# [6] = test system: Enterococcus fecalis Strain SF 24397 NR31970; experiment: MIC, broth microdilution in TSB; type: cell-based; conditions: Enterococcus
# Description: as §1
# [7] = test system: Enterococcus fecalis Strain SF 28073-NR31972; experiment: MIC, broth microdilution in TSB; type: cell-based; conditions: Enterococcus
# Description: as §1
# [8] = test system: Enterococcus fecalis Strain SF24413 NR31971; experiment: MIC, broth microdilution in TSB; type: cell-based; conditions: Enterococcus
# Description: as §1
# [9] = test system: MRSA NRS 384 (MRSA USA300); experiment: MIC against Staphylococci, broth microdilution; type: cell-based, Staphylococcus aureus; conditions: Staphylococcus aureus
# Description: as §1, with “Institute (CLSI) 1. Staphylococci” for “Institute (CLSI). Enterococci”, “Table 2” for “Table 1”
# [10] = test system: Staphylococcus epidermidis NRS 101; experiment: MIC against Staphylococci, broth microdilution; type: cell-based; conditions: Staphylococcus epidermidis, NRS101
# Description: as §1, with “Institute (CLSI) 1. Staphylococci” for “Institute (CLSI). Enterococci”, “Table 2” for “Table 1”
# [11] = test system: Bacteroides dorei—CL02T12C06 HM-719; experiment: MIC against human normal gut microbiota; type: cell-based; conditions: Bacteroides
# Description: (§2) Three different bacterial strains were used in this experiment; Bifidobacterium (anaerobic Gram positive bacteria), Bacteroides (anaerobic Gram negative bacteria) and Lactobacillus (microaerophilic Gram positive bacteria). Bifidobacterium and Bacteroides were first grown for 48 hours at 37° C., anaerobically using brain heart infusion supplemented (BHIS) agar (Brain heart infusion agar supplemented with hemin, vitamin K and L-cysteine). Lactobacillus was cultivated on MRS agar and incubated in presence of 5% CO2 for 48 hours at 37° C. Each bacterium was suspended in phosphate buffered saline (PBS) to produce a suspension with optical density that matches 0.5 McFarland standard and diluted in brain heart infusion supplemented broth (for Bifidobacterium and Bacteroides) or in MRS broth (for Lactobacillus) to achieve bacterial concentration of approximately 5×10^5 CFU/ml. Bacteria were then seeded in 96-well plates containing serial dilutions of the compounds and incubated as mentioned previously for 48 hours.
# [12] = test system: Bacteroides fragilis—CL07T00C01 HIM-709; experiment: MIC against human normal gut microbiota; type: cell-based; conditions: Bacteroides
# Description: as §2
# [13] = test system: Bifidobacterium breve—JCP7499 HIM 1120; experiment: MIC against human normal gut microbiota; type: cell-based; conditions: Bifidobacterium
# Description: as §2
# [14] = test system: Bifidobacterium longum subsp. Longum—44B HM 845; experiment: MIC against human normal gut microbiota; type: cell-based; conditions: Bifidobacterium longum
# Description: as §2
# [15] = test system: Lactobacillus casei ATCC 334; experiment: MIC against human normal gut microbiota; type: cell-based; conditions: Lacticaseibacillus casei
# Description: as §2
# [16] = test system: Lactobacillus gasseri EX336960VC03 HIM-400; experiment: MIC against human normal gut microbiota; type: cell-based; conditions: Lactobacillus gasseri
# Description: as §2
# [17] = test system: Enterococcus faecium E417-HM-965; experiment: MIC of CAIs in BHIB and TSB; type: cell-based
# Description: (§3) The minimum inhibitory concentrations (MICs) of CAIs were tested against clinical isolates of vancomycin sensitive and vancomycin resistant Enterococci strains as per the guidelines provided by the Clinical and Laboratory Standards Institute (CLSI). The selected strains of Enterococci were streaked on Tryptic Soy Agar (TSA) plates and let grow for 24 hours at 37° C. Afterwards, a bacterial solution equivalent to 0.5 McFarland standard was prepared and diluted in tryptone soy broth (TSB) or brain heart infusion broth (BHIB) to achieve a bacterial concentration of about 5×10^5 CFU/mL and seeded in 96-well well plates. Compounds and control drugs were added in the first row of the 96-well plates and serially diluted along the plates. Plates were then incubated aerobically at 37° C. for 18-20 hours. MICs reported in Table 5 are the minimum concentration of the compounds/control drugs that could inhibit completely the visual growth of the bacteria.
# [18] = test system: Enterococcus faecium Patient #2-1-NR-31909; experiment: MIC of CAIs in BHIB and TSB; type: cell-based
# Description: as §3
# [19] = test system: Enterococcus fecalis Strain SF 24397 NR31970; experiment: MIC of CAIs in BHIB and TSB; type: cell-based
# Description: as §3
# [20] = test system: Enterococcus faecalis—S613 HM-334; experiment: MIC of CAIs in BHIB and TSB; type: cell-based
# Description: as §3, with “bacteria. The MIC values of CAIs against the tested VRE strains were higher in BHIB than in TSB. This may be due to binding of these drugs to proteins. […] They inhibited the VRE strains at MIC values ranging from 1 to 4 μg/mL.” for “bacteria.”
# [21] = TSB, Table 7, read-out: MIC in TSB
# [22] = E417HM965, TSB, Table 1, read-out: MIC
# [23] = E417HM965, TSB, Table 7, read-out: MIC in TSB
# [24] = BHIS broth, anaerobic, 48 hours, read-out: MIC
# [25] = ATCC334, MRS broth, 5% CO2, 48 hours, read-out: MIC
# [26] = MRS broth, 5% CO2, 48 hours, read-out: MIC
smiles,measurement,setting,value
"CCC(=O)Nc1nnc(S(N)(=O)=O)s1 [CAI0009, N-(5-Sulfamoyl-1,3,4-thiadiazol-2-yl) propionamide]",MIC,"[1]; TSB, Table 1, read-out: MIC",2 µg/mL
same,MIC,[1]; [21],2 µg/mL
same,MIC,[2]; [22],1 µg/mL
same,MIC,[2]; [23],1 µg/mL
same,MIC,"[3]; TSB, Table 1, read-out: MIC",1 µg/mL
same,MIC,[3]; [21],1 µg/mL
same,MIC,"[4]; TSB, Table 1, read-out: MIC",1 µg/mL
same,MIC,[4]; [21],1 µg/mL
same,MIC,"[5]; TSB, Table 1, read-out: MIC",2 µg/mL
same,MIC,[5]; [21],2 µg/mL
same,MIC,"[6]; TSB, Table 1, read-out: MIC",4 µg/mL
same,MIC,[6]; [21],4 µg/mL
same,MIC,"[7]; TSB, Table 1, read-out: MIC",4 µg/mL
same,MIC,[7]; [21],4 µg/mL
same,MIC,"[8]; TSB, Table 1, read-out: MIC",4 µg/mL
same,MIC,[8]; [21],4 µg/mL
same,MIC,"[9]; TSB, read-out: MIC",> 64 µg/mL
same,MIC,"[10]; TSB, read-out: MIC",> 64 µg/mL
same,MIC,[11]; [24],> 64 µg/mL
same,MIC,[12]; [24],> 64 µg/mL
same,MIC,[13]; [24],> 64 µg/mL
same,MIC,[14]; [24],> 64 µg/mL
same,MIC,[15]; [25],> 64 µg/mL
same,MIC,[16]; [26],> 64 µg/mL
"NS(=O)(=O)c1nnc(NC(=O)c2ccccc2)s1 [CAI0012, N-(5-Sulfamoyl-1,3,4-thiadiazol-2-yl)benzamide]",MIC,"[1]; TSB, Table 1, read-out: MIC",4 µg/mL
same,MIC,[1]; [21],4 µg/mL
same,MIC,[2]; [22],2 µg/mL
same,MIC,[2]; [23],2 µg/mL
same,MIC,"[3]; TSB, Table 1, read-out: MIC",1 µg/mL
same,MIC,[3]; [21],1 µg/mL
same,MIC,"[4]; TSB, Table 1, read-out: MIC",1 µg/mL
same,MIC,[4]; [21],1 µg/mL
same,MIC,"[5]; TSB, Table 1, read-out: MIC",4 µg/mL
same,MIC,[5]; [21],4 µg/mL
same,MIC,"[6]; TSB, Table 1, read-out: MIC",4 µg/mL
same,MIC,[6]; [21],4 µg/mL
same,MIC,"[7]; TSB, Table 1, read-out: MIC",8 µg/mL
same,MIC,[7]; [21],8 µg/mL
same,MIC,"[8]; TSB, Table 1, read-out: MIC",4 µg/mL
same,MIC,[8]; [21],4 µg/mL
same,MIC,"[9]; TSB, read-out: MIC",> 64 µg/mL
same,MIC,"[10]; TSB, read-out: MIC",> 64 µg/mL
same,MIC,[11]; [24],> 64 µg/mL
same,MIC,[12]; [24],> 64 µg/mL
same,MIC,[13]; [24],> 64 µg/mL
same,MIC,[14]; [24],> 64 µg/mL
same,MIC,[15]; [25],> 64 µg/mL
same,MIC,[16]; [26],> 64 µg/mL
"CN[C@H](CC(C)C)C(=O)N[C@H]1C(=O)N[C@@H](CC(N)=O)C(=O)N[C@H]2C(=O)N[C@H]3C(=O)N[C@H](C(=O)N[C@H](C(=O)O)c4cc(O)cc(O)c4-c4cc3ccc4O)[C@H](O)c3ccc(c(Cl)c3)Oc3cc2cc(c3O[C@@H]2O[C@H](CO)[C@@H](O)[C@H](O)[C@H]2O[C@H]2C[C@](C)(N)[C@H](O)[C@H](C)O2)Oc2ccc(cc2Cl)[C@H]1O [Vancomycin, reference compound]",MIC,[1],> 64 µg/mL
same,MIC,[1]; read-out: MIC in TSB,> 64 µg/mL
same,MIC,[2]; E417HM965,> 64 µg/mL
same,MIC,"[2]; E417HM965, read-out: MIC in TSB",> 64 µg/mL
same,MIC,[3],> 64 µg/mL
same,MIC,[3]; read-out: MIC in TSB,> 64 µg/mL
same,MIC,[4],> 64 µg/mL
same,MIC,[4]; read-out: MIC in TSB,> 64 µg/mL
same,MIC,[5],2 µg/mL
same,MIC,[5]; read-out: MIC in TSB,2 µg/mL
same,MIC,[6],2 µg/mL
same,MIC,[6]; read-out: MIC in TSB,2 µg/mL
same,MIC,[7],> 64 µg/mL
same,MIC,[7]; read-out: MIC in TSB,> 64 µg/mL
same,MIC,[8],32 µg/mL
same,MIC,[8]; read-out: MIC in TSB,32 µg/mL
same,MIC,[9],1 µg/mL
same,MIC,[10],4 µg/mL
same,MIC,[11]; 48 h,64 µg/mL
same,MIC,[12]; 48 h,64 µg/mL
same,MIC,[13]; 48 h,8 µg/mL
same,MIC,[14]; 48 h,8 µg/mL
same,MIC,"[15]; ATCC334, 48 h",> 64 µg/mL
same,MIC,[16]; 48 h,> 64 µg/mL
same,MIC,"[17]; Enterococcus faecium, E417HM965",> 128 µg/mL
same,MIC,"[17]; TSB, Table 5",>128 µg/mL
same,MIC,[18]; Enterococcus faecium,> 128 µg/mL
same,MIC,"[18]; TSB, Table 5",>128 µg/mL
same,MIC,[19]; Enterococcus,2 µg/mL
same,MIC,"[19]; TSB, Table 5",2 µg/mL
same,MIC,[20]; Enterococcus,> 128 µg/mL
same,MIC,"[20]; TSB, Table 5",>128 µg/mL
